For assay [1] the following is noted: STRATUS clinical study, nicotine addiction; cited from earlier work.
The conditions of assay [2]: obese patients, clinical studies; cited from earlier work.
In assay [3] the test system is LPS-induced migration of neutrophil and mononuclear cells in the bronchoalveolar space. Nature of the assay: Migration of cells in the bronchoalveolar space after activation with bacterial LPS. Format: in vivo. Conditions: mice, doses 0.3 to 30 mg/kg; for ED50: Mus musculus, i.p. 1 hour before 10 μG intratracheal LPS, bronchoalveolar lavage 24 hours after LPS. Here is the method: Migration of cells in the bronchoalveolar space after activation with bacterial LPS (lipopolysaccharide).
Mice weighing 28 to 30 g are stimulated by means of an intratracheal exposure to 10 μG of LPS. 24 hours after the injection of LPS, the animals are anaesthetized with pentobarbital and a bronchoalveolar lavage is performed. The lavage fluids are recovered and are centrifuged, and the cells are then resuspended. The number of cells is counted, differentiating the eosinophil, neutrophil and mononuclear cells according to standard morphological criteria.
The intratracheal injection of LPS induces a considerable increase in the number of mononuclear cells and neutrophils in the bronchoalveolar space of the mice.

Read-outs that look alike come from different tables or passages of the source.

In the case of `Cc1c(C(=O)NN2CCCCC2)nn(-c2ccc(Cl)cc2Cl)c1-c1ccc(Cl)cc1` [rimonabant, N-piperidino-5-(4-chlorophenyl)-1-(2,4-dichlorophenyl)-4-methylpyrazole-3-carboxamide], the “effect on giving up smoking” value in assay [1] is “facilitates giving up smoking”. For the same compound, the “effect on hunger, calorie intake and body weight” value in assay [2] is “reduces hunger, calorie intake, and the body weight of obese patients”. In addition, the ED50 was 1.9 mg/kg in assay [3] (Mononuclear cell, read-out: ED50, inhibition of migration of the mononuclear cells) and 2.3 mg/kg in assay [3] (Neutrophil, read-out: effective dose 50 (ED50), inhibition of migration of the neutrophil cells). Moreover, the “inhibition of migration of the neutrophil cells” value in assay [3] (i.p. 1 hour before intratracheal LPS) was “more than 80%”.

These data come from patent US20080081827A1, “Use of a Pyrazole-Derived Compound that is an Antagonist for Cannabinoid CB1 Receptors, for Treating or Preventing Chronic Bronchitis or Chronic Obstructive Bronchopneumopathy” (SANOFI AVENTIS, priority 2004, published 2008).
